The target in the test is T1, SIRT1 (Homo sapiens, UniProt Q96EB6).
T1 sequence (Q96EB6 1-747): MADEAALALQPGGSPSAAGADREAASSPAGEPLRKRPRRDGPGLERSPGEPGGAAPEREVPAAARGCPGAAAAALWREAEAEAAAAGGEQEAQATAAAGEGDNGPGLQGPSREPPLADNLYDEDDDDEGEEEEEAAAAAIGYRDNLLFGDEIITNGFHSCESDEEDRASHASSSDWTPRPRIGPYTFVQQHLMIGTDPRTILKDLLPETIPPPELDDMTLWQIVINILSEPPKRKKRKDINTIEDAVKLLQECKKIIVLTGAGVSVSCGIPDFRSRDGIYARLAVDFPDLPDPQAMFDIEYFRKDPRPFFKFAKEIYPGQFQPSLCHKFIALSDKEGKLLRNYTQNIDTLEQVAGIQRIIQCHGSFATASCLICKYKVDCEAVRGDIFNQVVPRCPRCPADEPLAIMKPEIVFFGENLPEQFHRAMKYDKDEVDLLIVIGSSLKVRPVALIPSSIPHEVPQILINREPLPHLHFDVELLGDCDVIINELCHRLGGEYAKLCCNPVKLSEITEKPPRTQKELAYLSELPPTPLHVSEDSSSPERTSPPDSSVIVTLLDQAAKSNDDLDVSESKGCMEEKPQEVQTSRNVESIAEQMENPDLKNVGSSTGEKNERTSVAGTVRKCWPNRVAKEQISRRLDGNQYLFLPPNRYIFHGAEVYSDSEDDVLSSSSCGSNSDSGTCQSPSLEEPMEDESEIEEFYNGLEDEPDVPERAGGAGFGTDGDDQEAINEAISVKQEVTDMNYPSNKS
Briefly: mass spectrometry based assay to identify modulators of SIRT1 activity (deacetylation of p53-based acetylated peptide). The test is classed as biochemical. Particulars: SIRT1 activation, 10 nM SIRT1, 0.5 μM peptide substrate, 120 μM βNAD+, 25 minutes at 25° C.; for Emax: 25 min, read-out: % Fold Act. (percent maximum fold activation). The source says:
A mass spectrometry based assay was used to identify modulators of SIRT1 activity. The mass spectrometry based assay utilizes a peptide having 20 amino acid residues as follows: Ac-EE-K(biotin)-GQSTSSHSK(Ac)NleSTEG-K(5TMR)-EE-NH2 (SEQ ID NO: 1) wherein K(Ac) is an acetylated lysine residue and Nle is a norleucine. The peptide is labeled with the fluorophore 5TMR (excitation 540 nm/emission 580 nm) at the C-terminus. The sequence of the peptide substrate is based on p53 with several modifications. In addition, the methionine residue naturally present in the sequence was replaced with the norleucine because the methionine may be susceptible to oxidation during synthesis and purification.
The mass spectrometry assay is conducted as follows: 0.5 μM peptide substrate and 120 μM βNAD^+ is incubated with 10 nM SIRT1 for 25 minutes at 25° C. in a reaction buffer (50 mM Tris-acetate pH 8, 137 mM NaCl, 2.7 mM KCl, 1 mM MgCl2, 5 mM DTT, 0.05% BSA). Test compounds may be added to the reaction as described above. The SirT1 gene is cloned into a T7-promoter containing vector and transformed into BL21(DE3). After the 25 minute incubation with SIRT1, 10 μL of 10% formic acid is added to stop the reaction. Reactions are sealed and frozen for later mass spec analysis. Determination of the mass of the substrate peptide allows for precise determination of the degree of acetylation (i.e. starting material) as compared to deacetylated peptide (product).
A control for inhibition of sirtuin activity is conducted by adding 1 μL of 500 mM nicotinamide as a negative control at the start of the reaction (e.g., permits determination of maximum sirtuin inhibition). A control for activation of sirtuin activity is conducted using 10 nM of sirtuin protein, with 1 μL of DMSO in place of compound, to determine the amount of deacetylation of the substrate at a given timepoint within the linear range of the assay. This timepoint is the same as that used for test compounds and, within the linear range, the endpoint represents a change in velocity.
For the above assay, SIRT1 protein was expressed and purified as follows. The SirT1 gene was cloned into a T7-promoter containing vector and transformed into BL21(DE3). The protein was expressed by induction with 1 mM IPTG as an N-terminal His-tag fusion protein at 18° C. overnight and harvested at 30,000×g. Cells were lysed with lysozyme in lysis buffer (50 mM Tris-HCl, 2 mM Tris[2-carboxyethyl]phosphine (TCEP), 10 μM ZnCl2, 200 mM NaCl) and further treated with sonication for 10 min for complete lysis. The protein was purified over a Ni-NTA column (Amersham) and fractions containing pure protein were pooled, concentrated and run over a sizing column (Sephadex S200 26/60 global). The peak containing soluble protein was collected and run on an Ion-exchange column (MonoQ). Gradient elution (200 mM-500 mM NaCl) yielded pure protein. This protein was concentrated and dialyzed against dialysis buffer (20 mM Tris-HCl, 2 mM TCEP) overnight. The protein was aliquoted and frozen at −80° C. until further use.
Sirtuin modulating compounds that activated SIRT1 were identified using the assay described above and are shown below in Table 1. The EC1-5 values for the activating compounds are represented by A (EC1-5<1.0 uM), B (EC1-5 1-25 uM), C (EC1-5>25 uM). The percent maximum fold activation is represented by A (Fold activation>150%) or B (Fold Activation<150%).

`O=C(Nc1nccs1)c1cccc2nc(-c3cccc(C(F)(F)F)c3)oc12` [Compound 106]: the Emax was below 150% and the EC1.5 entry is given as “C (EC1-5>25 uM)”.

Consider `O=C(Nc1nccs1)c1cccc2sc(-c3cccnc3)nc12` [Compound 128], for which the Emax was below 150% and the EC1.5 entry is “C (EC1-5>25 uM)”.

As for `O=C(Nc1ccccn1)c1cccc2sc(-c3cccc(OC(F)(F)F)c3)nc12` [Compound 115], the Emax is below 150% and the EC1.5 entry is recorded as “C (EC1-5>25 uM)”.

In the case of `O=C(Nc1cccnc1)c1cccc2nc(-c3cccc(C(F)(F)F)c3)oc12` [Compound 108], the Emax is above 150% and the EC1.5 result was “B (EC1-5 1-25 uM)”.

For `O=C(Nc1cccc2oc(-c3cccc(OC(F)(F)F)c3)nc12)c1cscn1` [Compound 104, N-(2-(3-(trifluoromethoxy)phenyl)benzo[d]oxazol-4-yl)thiazole-4-carboxamide], the Emax was below 150% and the EC1.5 result was “C (EC1-5>25 uM)”.

For the molecule `O=C(Nc1ccnc(N2CCCC2)c1)c1cccc2sc(-c3cccc(C(F)(F)F)c3)nc12` [Compound 154], the Emax is above 150% and the EC1.5 entry is on record as “A (EC1-5<1.0 uM)”.

On to `O=C(Nc1nccs1)c1cccc2oc(-c3cc(F)ccc3C(F)(F)F)nc12` [Compound 147], for which the Emax is below 150% and the EC1.5 entry is “C (EC1-5>25 uM)”.

On to `O=C(Nc1cccc2oc(-c3cccc(OC(F)(F)F)c3)nc12)c1cnccn1` [Compound 105], for which the Emax was below 150% and the EC1.5 result is reported as “C (EC1-5>25 uM)”.

For `O=C(Nc1ccccn1)c1cccc2nc(-c3cc(F)ccc3C(F)(F)F)oc12` [Compound 134], the Emax is below 150% and the EC1.5 result is given as “B (EC1-5 1-25 uM)”.

For `O=C(Nc1cccc(CN2CCOCC2)n1)c1cccc2nc(-c3ccc(F)cc3C(F)(F)F)oc12` [Compound 133], the Emax was above 150% and the EC1.5 entry is recorded as “B (EC1-5 1-25 uM)”.

Regarding `O=C(Nc1ccccn1)c1cccc2oc(-c3ccccc3C(F)(F)F)nc12` [Compound 138], the Emax is above 150% and the EC1.5 entry is recorded as “B (EC1-5 1-25 uM)”.

Consider `O=C(Nc1cccnc1)c1cccc2sc(-c3cccc(OC(F)(F)F)c3)nc12` [Compound 116], for which the Emax is below 150% and the EC1.5 entry was “C (EC1-5>25 uM)”.

Turning to `O=C(Nc1nc(CN2CCOCC2)cs1)c1cccc2nc(-c3ccccc3OC(F)(F)F)oc12` [Compound 119], the Emax is above 150% and the EC1.5 result is reported as “B (EC1-5 1-25 uM)”.

On to `O=C(Nc1nc(CN2CCOCC2)cs1)c1cccc2oc(-c3ccccc3C(F)(F)F)nc12` [Compound 139], for which the Emax was above 150% and the EC1.5 entry is “A (EC1-5<1.0 uM)”.

Turning to `O=C(Nc1cccc2oc(-c3cccc(C(F)(F)F)c3)nc12)c1cnccn1` [Compound 103], the Emax was below 150% and the EC1.5 result is listed as “C (EC1-5>25 uM)”.

On to `O=C(Nc1ccccn1)c1cccc2sc(-c3cccc(C(F)(F)F)c3)nc12` [Compound 112], for which the Emax is below 150% and the EC1.5 result is given as “C (EC1-5>25 uM)”.

Regarding `O=C(Nc1nccs1)c1cccc2oc(-c3ccccc3C(F)(F)F)nc12` [Compound 137, N-(thiazol-2-yl)-2-(2-(trifluoromethyl)phenyl)benzo[d]oxazole-4-carboxamide], the Emax was above 150% and the EC1.5 entry is recorded as “B (EC1-5 1-25 uM)”.

Take `O=C(Nc1ccccn1)c1cccc2nc(-c3ccc(F)cc3C(F)(F)F)oc12` [Compound 131]: the Emax is above 150% and the EC1.5 result is “B (EC1-5 1-25 uM)”.

In the case of `O=C(Nc1nccs1)c1cccc2sc(-c3cccc(OC(F)(F)F)c3)nc12` [Compound 114], the Emax was below 150% and the EC1.5 entry was “C (EC1-5>25 uM)”.
